From BigSolDB 2.1

Settings: 298.2 K

O=C(c1ccccc1)c1ccc(O)cc1O
Settings	solubility (mole fraction)
in 2-ethoxyethanol	0.0308
in 2-isopropoxyethanol	0.0333
in chlorobenzene	0.0044
in cyclohexane	5.07e-05
in diisopropyl ether	0.00744
in ethylbenzene	0.00408
in isooctane	3.31e-05
in m-xylene	0.00415
in methylcyclohexane	6.92e-05
in n-butanol	0.0109
in n-heptane	3.82e-05
in n-heptanol	0.018
in n-hexane	3.26e-05
in n-hexanol	0.0161
in n-octane	4.43e-05
in n-octanol	0.0183
in n-pentanol	0.0125
in o-xylene	0.00429
in p-xylene	0.00448
in sec-butanol	0.0103
in toluene	0.00364
